# System: orthotopic U87MG brain glioma
# Assay: Effect on survival in orthotopic U87MG brain glioma model in nude mice
# Assay type: in vivo
# Conditions: BALB/c nude mice, 40 mg·kg^-1 (as irinotecan), i.v. via tail, Q4D×3, dosing from day 12 after inoculation
# Procedure: Experimental animals: Female BALB/c nude mice (number of animals: 150, weeks of age: 6 to 8 weeks) were purchased from Beijing Vital River Laboratory Animal Technology Co., Ltd., and housed in an SPF animal room. The temperature was 20° C. to 25° C., the relative humidity was 40% to 70%, and the light and dark were respectively 12 hours. The animals had free access to water and food. After about one week of normal feeding, upon a veterinary inspection, mice with good physical signs and conditions could be selected for this experiment. A marking pen was used to mark the base of the tails of the animals before the grouping, and each animal was marked by ear clipping after the grouping.
# Transplantable tumor cell strain: Brain glioma cell U87MG, derived from Cell Bank of Committee on Type Culture Collection of Chinese Academy of Science (CAS, stored frozen in liquid nitrogen in the laboratory).
# According to the condition of cell growth, the cells were passaged once or twice every week, and were passaged in a ratio of 1:2 to 1:6.
# Preparation of the animal model: U87MG cells in logarithmic phase of growth were collected. […] The cells were charged into a 50 mL centrifuge tube after being pipetted with a pipettor to make them evenly dispersed, and the centrifuge tube was placed in an ice box. […]
# Data recording and calculation formula: The survival time of the animals were recorded.
smiles,measurement,value
CCc1c2c(nc3ccc(OC(=O)N4CCC(N5CCCCC5)CC4)cc13)-c1cc3c(c(=O)n1C2)COC(=O)[C@]3(O)CC [irinotecan],Median survival time,27 days

# Source: patent publication US11191843B2, “Multi-arm targeting anti-cancer conjugate” (priority 2017, dated 2021)
